Test results: patent US9382204B2, “Inhibitors targeting the DNA-binding domain of human STAT3 for treatment of metastatic cancers” (Indiana University Research and Technology Corporation, priority 2013, dated 2016)

Columns and labels:
STAT3 [1] = experiment: In-situ STAT3 binding to chromatin (subcellular fractionation, Western blot); format: cell-based, human; settings: A549 and MDA-MB-231 cells, increasing concentration
Description: Subcellular fractionation was performed as previously described. Briefly, cells were lysed in 10 mM HEPES, pH7.9, 10 mM KCl, 1.5 mM MgCl2, 0.34 M Sucrose, 10% glycerol, 1% Triton X-100, 1 mM DTT, 10 μM leupeptin, protease inhibitor cocktail and centrifuged at 4,200 g for 5 minutes to collect supernatant as cytosolic fraction. The pellet (nuclei) was resuspended in 3 mM EDTA, 0.2 mM EGTA, 1 mM DTT, 10 μM leupeptin, protease inhibitor cocktail and incubated on ice for 30 minutes followed by centrifugation at 5,000 g for 5 minutes. The supernatant was collected as soluble nuclear fraction. The pellet was resuspended in 50 mM Tris/HCl, pH7.4, 150 mM NaCl, 0.5% […], 5 mM EDTA, 50 mM NaF, 1 mM NaVO3, 1% SDS, 1 mM DTT, 10 μM leupeptin, protease inhibitor cocktail and sonicated to release proteins from chromatins.
The in-situ DNA-binding activity of STAT3 was performed by analyzing chromatin-bound STAT3 also as previously described.

IMR90 and MCF10A1 cells = experiment: Cytotoxicity sulphorhodamine (SRB) assay, non-cancerous cells
Description: FIG. 7. […] (A) Level of STAT3 expression and activation. […] Actin was used as a loading control. (B-C) Cytotoxicity assay. […] IC50 of inS3-54 for each cell line was derived using PrismPad program. (D) Apoptosis assay.
Cytotoxicity of inS3-54 was determined using sulphorhodamine colorimetric assay as described previously (41). Photometric enzyme immunoassay using Cell Death Detection ELISA Plus kit (Roche Diagnostics, Indianapolis, Ind.) was performed for quantitative in-vitro determination of cytoplasmic histone-associated DNA fragments and apoptosis as we previously described.
Survival, apoptosis, migration, and invasion assays were performed as previously described. Briefly, effect of STAT3 inhibitors on cell survival were analyzed using sulforhodamine B (SRB) assay. Apoptosis induced by STAT3 inhibitors cells were quantified using Cell Death Detection ELISA^PLUS Kit (Roche, Mannheim, Germany) by enzyme-linked immunosorbent assay (ELISA) according to manufacturer's instructions. Wound filling assay was performed by culturing 1×10^5 cells/well in 6-well plates, followed by generating a wound using a pipet tip and continuous culture with photographic recording at different times.

A549 cells [2] = experiment: Mouse xenograft model of A549 cells; format: in vivo, NOD/SCID mice
Description: For efficacy study. 5×10^6 A549 cells were injected subcutaneously in the flanks of 12 NOD/SCID mice. When the tumor volume reached about 50.0 mm^3, the mice were randomized into two different groups (6/group) with one treated by formulation vehicle control (Pharmatek Laboratories, San Diego, Calif.) and the other by A18 at 200 mg/kg with oral dosing every two days for four weeks. One mouse in each group died during the study and was eliminated. Tumor volume and body weight were measured twice a week. On the 35th day after implant, mice were euthanized and the tumor tissues were harvested and weighed. Necropsy was also performed to determine the changes in heart, lungs, kidneys, liver and spleen. To evaluate the histological alternation, metastasis in the lung and the expression of STAT3 and its downstream proteins, paraffin-embedded tissue sections were stained with ematoxylin and eosin (H&E) and/or used for immunohistochemistry analysis.

[3] = mouse, in vivo
STAT3 [4] = experiment: ChIP assay of STAT3 bound to cyclin D1 promoter; format: cell-based, human
Description: ChIP was performed as previously described. Briefly, H1299 cells were treated with 1% formaldehyde for 10 min and lysates of the cells were sonicated to shear DNA to lengths between 200 and 1000 bases, which were then subjected to ChIP using Chromatin Immunoprecipitation Assay Kit (EMD Millipore, Billerica, Mass.) and normal IgG or STAT3 specific antibody (Santa Cruz) according to manufacturer's instructions. The primers for PCR of cyclin D1 promoter are 5′-[…]-3′ SEQ ID NO: 23 (forward) and 5′-[…]-3′ SED ID NO: 24 (reverse).

MDA-MB-231 cells [5] = experiment: Wound-healing migration assay, MDA-MB-231; format: cell-based, human; settings: 24 hours
Description: For wound-healing assay, 1×10^5 cells per well were plated in 6-well plates followed by introduction of a wound and monitoring the healing process of the wound over a 24-hour period. The healing of the wound was determined by measuring the remaining gap between two migrating edges at different times. […] At different times, invading cells were stained with crystal violate and counted.

A549 cells [6] = experiment: Proliferation and apoptosis of 100% confluent A549 cells; format: cell-based, human
Description: (§1) FIG. 9. Effect of inS3-54 on cell growth and apoptosis of confluent cells. […] (**p<0.01; *p<0.05).
(§2) FIG. 21. Effects of inS3-54A18 on cell growth and apoptosis of confluent cells.
(§3) Although we used 100% confluent cells and short time incubation in the above assays, inS3-54 inhibition of proliferation may still contribute to the above observed outcome. To eliminate this possibility, we analyzed cell proliferation and apoptosis under the same condition as wound-healing and Matrigel invasion assays with confluent cultures. […] Thus, we conclude that inS3-54 inhibition of migration and invasion is unlikely due to its effect on apoptosis and cell proliferation.

MDA-MB-231 cells [7] = experiment: Proliferation and apoptosis of 100% confluent MDA-MB-231 cells; format: cell-based, human
Description: as §1, §2, §3

STAT3 [8] = experiment: IL-6 stimulated STAT3 activation in serum-starved A549 cells; settings: 25 ng/ml IL-6
[9] = Pilot pharmacokinetic study
[10] = test system: A549 and MDA-MB-231 cells; experiment: Luminescence-based glutathione alkylation assay (GSH-Glo); format: cell-based, human; settings: 20 μM inS3-54 48 hours, 15 mM iodoacetamide 30 minutes
Excerpt: FIG. 5. Effect of inS3-54 glutathione level. […] (***p<0.001).
To further eliminate the possibility that inS3-54 has alkylating activity, we performed luminescence-based glutathione alkylation assay.

[11] = 200 mg/kg oral, every two days for four weeks

O=C1C(=Cc2ccc(Cl)cc2)C=C(c2ccccc2)N1c1ccc(O)cc1 [Compound A18]
STAT3 in the chromatin-bound fraction (STAT3 [1]): decreases | cytotoxicity to noncancerous cells (IMR90 and MCF10A1 cells): little cytotoxicity | final tumor weight compared to control-treated group (A549 cells [2]; [11]): significantly less | mouse body weight (A549 cells [2]; [11]): no significant effect | weight of other organs (A549 cells [2]; [11]): no difference | xenograft tumor growth compared to vehicle control (A549 cells [2]; [11]): significantly reduced | lung metastasis (A549 cells [2]; H&E staining and histology): None of the A18-treated mice has any signs of lung metastasis | expression of survivin and VEGF in xenograft tumors (A549 cells [2]; immunohistochemistry): reduced | dose tolerated by mice [3]: up to 200 mg/kg | STAT3 binding to the promoter of cyclin D1 gene (ChIP) (STAT3 [4]): eliminated | wounds healed (MDA-MB-231 cells [5]; 5 μM): 76% | wounds healed (MDA-MB-231 cells [5]; 10 μM): 39% | proliferation and apoptosis of confluent A549 (A549 cells [6]; 5 and 10 μM, 6 or 24 hours): no significant effect | apoptosis of confluent MDA-MB-231 cells (MDA-MB-231 cells [7]; 5 and 10 μM, 24 hours): did not induce any apoptosis | reduction of proliferation of confluent MDA-MB-231 cells (MDA-MB-231 cells [7]; 5 and 10 μM, 24 hours): < 20% | IL-6-stimulated phosphorylation / activation of STAT3 (STAT3 [8]): did not inhibit | IL-6 stimulated expression of survivin (STAT3 [8]): inhibited

CC(=O)Nc1ccc(N2C(=O)C(=Cc3ccc(Cl)cc3)C=C2c2ccccc2)cc1 [Compound A26]
cytotoxicity to lung fibroblast (IMR90 and MCF10A1 cells): high level cytotoxicity | IC50 (IMR90 and MCF10A1 cells; read-out: IC50, noncancerous lung fibroblast, lung fibroblast (IMR90)): 4 µM | plasma concentration [9]: very low

O=C(O)c1ccc(N2C(=O)/C(=C/c3ccc([N+](=O)[O-])cc3)C=C2c2ccccc2)cc1 [inS3-54, 4-[(3E)-3-[(4-nitrophenyl)-methylidene]-2-oxo-5-phenylpyrrol-1-yl]benzoic acid]
glutathione level [10]: did not significantly reduce | STAT3 in the chromatin-bound fraction (STAT3 [1]): decreases | plasma concentration [9]: very low | wounds healed (MDA-MB-231 cells [5]; 10 μM): 77% | wounds healed (MDA-MB-231 cells [5]; 20 μM): 29% | proliferation and apoptosis of confluent A549 cells (A549 cells [6]; 20 μM, 24 hours): no significant effect | proliferation and apoptosis of confluent MDA-MB-231 cells (MDA-MB-231 cells [7]; 10 μM): did not significantly decrease proliferation or increase apoptosis | apoptosis of confluent cells (MDA-MB-231 cells [7]; 20 μM, 6 hours): no apoptosis was observed | apoptosis of confluent MDA-MB-231 cells (MDA-MB-231 cells [7]; 20 μM, 24 hours): increases apoptosis | proliferation of confluent MDA-MB-231 cells (MDA-MB-231 cells [7]; 20 μM, 24 hours): decreased the proliferation | IL-6-stimulated phosphorylation / activation of STAT3 (STAT3 [8]): had no effect | IL-6 stimulated expression of survivin (STAT3 [8]): inhibited
